Test: xn = mol fraction of the nth substance listed
Settings: Gas; for viscosity: Oscillating disk viscometry; for mass density: Pycnometric method

CC(F)(F)Cl [1-chloro-1,1-difluoroethane] + FC(F)Cl
Settings	mass density [kg/m3]	viscosity [mPa·s]
298.15 K, 101.5 kPa, x2 = 0.5169	3.896	0.01164
298.15 K, 101.7 kPa, x2 = 0.7502	3.754	0.01219
298.15 K, 101.8 kPa, x2 = 0.2615	4.07	0.01109
298.15 K, 177.1 kPa, x2 = 0.5169	6.906	0.01163
298.15 K, 198 kPa, x2 = 0.7502	7.44	0.01217
298.15 K, 205.6 kPa, x2 = 0.2615	8.45	0.01104
298.15 K, 248.7 kPa, x2 = 0.5169	9.867	0.0116
298.15 K, 291.6 kPa, x2 = 0.7502	11.16	0.01212
298.15 K, 299.2 kPa, x2 = 0.2615	12.59	0.01102
298.15 K, 323.9 kPa, x2 = 0.5169	13.12	0.01159
298.15 K, 357.3 kPa, x2 = 0.2615	15.25	0.01103
298.15 K, 384.8 kPa, x2 = 0.7502	15.02	0.01212
298.15 K, 391.5 kPa, x2 = 0.5169	16.21	0.01158
298.15 K, 406.4 kPa, x2 = 0.2615	17.6	0.011
298.15 K, 453.1 kPa, x2 = 0.5169	19.06	0.01157
298.15 K, 477.3 kPa, x2 = 0.7502	18.96	0.0121
298.15 K, 571.3 kPa, x2 = 0.7502	23.23	0.01209
323.15 K, 101.8 kPa, x2 = 0.2615	3.732	0.01206
323.15 K, 102.2 kPa, x2 = 0.7502	3.468	0.0132
323.15 K, 102.4 kPa, x2 = 0.2615	3.755	0.01207
323.15 K, 103 kPa, x2 = 0.5169	3.663	0.01262
323.15 K, 190 kPa, x2 = 0.5169	6.762	0.01261
323.15 K, 199 kPa, x2 = 0.7502	6.842	0.0132
323.15 K, 200 kPa, x2 = 0.2615	7.459	0.01203
323.15 K, 276.2 kPa, x2 = 0.5169	10.03	0.01259
323.15 K, 297.3 kPa, x2 = 0.7502	10.36	0.01317
323.15 K, 299.4 kPa, x2 = 0.2615	11.38	0.01201
323.15 K, 373.4 kPa, x2 = 0.5169	13.8	0.01259
323.15 K, 396.6 kPa, x2 = 0.2615	15.36	0.012
323.15 K, 398.7 kPa, x2 = 0.7502	14.09	0.01318
323.15 K, 473.2 kPa, x2 = 0.5169	17.99	0.01258
323.15 K, 492.9 kPa, x2 = 0.2615	19.48	0.01199
323.15 K, 510 kPa, x2 = 0.7502	18.34	0.0132
323.15 K, 575.5 kPa, x2 = 0.5169	22.07	0.01257
323.15 K, 593.3 kPa, x2 = 0.2615	23.99	0.01199
323.15 K, 618.1 kPa, x2 = 0.7502	22.66	0.0132
323.15 K, 670.6 kPa, x2 = 0.5169	26.3	0.01258
323.15 K, 687 kPa, x2 = 0.2615	28.43	0.01202
323.15 K, 724.7 kPa, x2 = 0.7502	26.96	0.01318
323.15 K, 771 kPa, x2 = 0.5169	30.74	0.01259
323.15 K, 793.7 kPa, x2 = 0.2615	33.76	0.01211
323.15 K, 828.4 kPa, x2 = 0.7502	31.41	0.0132
323.15 K, 867.1 kPa, x2 = 0.5169	35.23	0.0126
323.15 K, 937.9 kPa, x2 = 0.7502	36.25	0.01322
348.15 K, 101.4 kPa, x2 = 0.5169	3.305	0.01354
348.15 K, 101.6 kPa, x2 = 0.7502	3.189	0.01427
348.15 K, 102.1 kPa, x2 = 0.2615	3.463	0.01295
348.15 K, 198.6 kPa, x2 = 0.5169	6.548	0.01355
348.15 K, 199 kPa, x2 = 0.2615	6.847	0.01294
348.15 K, 200.7 kPa, x2 = 0.7502	6.368	0.01423
348.15 K, 296.9 kPa, x2 = 0.2615	10.36	0.01293
348.15 K, 344.3 kPa, x2 = 0.7502	11.09	0.01422
348.15 K, 345.4 kPa, x2 = 0.5169	11.61	0.01355
348.15 K, 446.2 kPa, x2 = 0.2615	15.92	0.01294
348.15 K, 490.8 kPa, x2 = 0.5169	16.98	0.01355
348.15 K, 490.8 kPa, x2 = 0.7502	16.07	0.01424
348.15 K, 590.8 kPa, x2 = 0.2615	21.56	0.01297
348.15 K, 637.2 kPa, x2 = 0.5169	22.25	0.01354
348.15 K, 638.2 kPa, x2 = 0.7502	21.43	0.01423
348.15 K, 736.9 kPa, x2 = 0.2615	27.57	0.01297
348.15 K, 781.7 kPa, x2 = 0.5169	27.87	0.01358
348.15 K, 782.5 kPa, x2 = 0.7502	26.5	0.01425
348.15 K, 887.3 kPa, x2 = 0.2615	34.14	0.01301
348.15 K, 925.6 kPa, x2 = 0.7502	31.97	0.01428
348.15 K, 930.2 kPa, x2 = 0.5169	33.93	0.01365
348.15 K, 1036 kPa, x2 = 0.2615	40.96	0.01302
348.15 K, 1077 kPa, x2 = 0.5169	40.31	0.01365
348.15 K, 1090 kPa, x2 = 0.7502	38.36	0.0143
348.15 K, 1182 kPa, x2 = 0.2615	48.22	0.01307
348.15 K, 1240 kPa, x2 = 0.7502	44.53	0.01438
348.15 K, 1262 kPa, x2 = 0.5169	48.67	0.0137
348.15 K, 1334 kPa, x2 = 0.2615	56.48	0.01312
348.15 K, 1392 kPa, x2 = 0.7502	51.21	0.01443
348.15 K, 1408 kPa, x2 = 0.5169	56	0.01377
348.15 K, 1489 kPa, x2 = 0.2615	65.73	0.01325
348.15 K, 1541 kPa, x2 = 0.7502	58.1	0.0145
348.15 K, 1552 kPa, x2 = 0.5169	63.84	0.01386
348.15 K, 1683 kPa, x2 = 0.7502	64.7	0.01457
373.15 K, 101.5 kPa, x2 = 0.5169	3.079	0.01451
373.15 K, 102.1 kPa, x2 = 0.7502	2.984	0.01518
373.15 K, 102.2 kPa, x2 = 0.2615	3.224	0.01377
373.15 K, 245.8 kPa, x2 = 0.7502	7.266	0.01517
373.15 K, 294.3 kPa, x2 = 0.5169	9.101	0.01449
373.15 K, 298.2 kPa, x2 = 0.2615	9.612	0.0138
373.15 K, 390.1 kPa, x2 = 0.7502	11.68	0.0152
373.15 K, 490 kPa, x2 = 0.5169	15.46	0.01452
373.15 K, 493.6 kPa, x2 = 0.2615	16.27	0.01381
373.15 K, 583.4 kPa, x2 = 0.7502	17.74	0.01521
373.15 K, 686.2 kPa, x2 = 0.5169	22.09	0.01454
373.15 K, 695.2 kPa, x2 = 0.2615	23.4	0.01381
373.15 K, 782.8 kPa, x2 = 0.7502	24.22	0.01526
373.15 K, 876.7 kPa, x2 = 0.2615	30.25	0.01387
373.15 K, 879 kPa, x2 = 0.5169	28.79	0.01458
373.15 K, 889.8 kPa, x2 = 0.2615	30.77	0.01388
373.15 K, 978.5 kPa, x2 = 0.7502	30.82	0.0153
373.15 K, 1080 kPa, x2 = 0.5169	36.34	0.01464
373.15 K, 1085 kPa, x2 = 0.2615	38.57	0.01394
373.15 K, 1173 kPa, x2 = 0.7502	37.6	0.01535
373.15 K, 1277 kPa, x2 = 0.5169	43.98	0.01476
373.15 K, 1281 kPa, x2 = 0.2615	46.94	0.01403
373.15 K, 1361 kPa, x2 = 0.7502	44.52	0.01542
373.15 K, 1472 kPa, x2 = 0.5169	51.98	0.0148
373.15 K, 1483 kPa, x2 = 0.2615	56.2	0.01413
373.15 K, 1565 kPa, x2 = 0.7502	52.28	0.0155
373.15 K, 1666 kPa, x2 = 0.5169	60.38	0.01486
373.15 K, 1689 kPa, x2 = 0.2615	66.3	0.01426
373.15 K, 1760 kPa, x2 = 0.7502	60.2	0.01559
373.15 K, 1862 kPa, x2 = 0.5169	69.61	0.01502
373.15 K, 1897 kPa, x2 = 0.2615	77.72	0.01439
373.15 K, 1952 kPa, x2 = 0.7502	68.25	0.01568
373.15 K, 2065 kPa, x2 = 0.5169	80.02	0.01509
373.15 K, 2115 kPa, x2 = 0.2615	91.26	0.01461
373.15 K, 2190 kPa, x2 = 0.7502	79.1	0.01586
373.15 K, 2295 kPa, x2 = 0.5169	92.76	0.01537
373.15 K, 2299 kPa, x2 = 0.2615	104.3	0.01486
373.15 K, 2398 kPa, x2 = 0.7502	89.07	0.01602
373.15 K, 2448 kPa, x2 = 0.5169	102	0.01542
373.15 K, 2467 kPa, x2 = 0.2615	117.9	0.01516

From the NIST ThermoML archive (doi:10.1007/s10765-009-0579-1)
